According to patent US20260234630A1, “Methods for Treating Multiple Myeloma” (Celgene Corporation, priority 2022, published 2026):

System: UHRF1 mRNA
Experiment: qRT-PCR of UHRF1 gene expression in MM cells
Type: cell-based
Protocol: FIG. 1A-1F. Down regulation of UHRF1 transcription by IMiDs correlates with drug sensitivity of multiple myeloma. (1A) Volcano plot of protein expression changes determined by mass spectrometry in H929 cells at 24 hr of treatment with CC-220 (0.1 μM) or DMSO control. X axis, Log2fold change (FC); Y axis, significance,-log 10 [p-value]. […] (1B) Volcano plot of gene expression changes determined by Affymetrix microarray in H929 cells treated with POM (1 μM) or DMSO for 24 hr. X axis, Log2fold change (FC); Y axis, significance,-log 10 [p-value], n=2 technical replicates). […] (1C) Western blot analysis protein expression of UHRF1, Ikaros, Aiolos and ZFP91 in H929 cells treated with 1 μM POM for indicated time. (1D) qRT-PCR analysis of UHRF1 gene expression levels in cells as in (1C). Error bars represent the SEM from duplicate measurements. (1E) Western blot analysis protein expression of UHRF1 and indicated proteins in MM cells treated with DMSO (−) or 1 μM POM (+) for 3 days. GAPDH serves as a loading control. (1F) Thymidine incorporation of various MM cell lines treated with indicated dose of POM for 3 days. Error bars represent the SEM from technical replicates.
FIG. 2A-2E. UHRF1 expression is positively regulated by Ikaros and Aiolos in IMiDs sensitive MM cells. (2A) Western blot analysis protein expression of UHRF1, Ikaros, Aiolos, ZFP91 and Cereblon expression in control [shLuciferase (shLuc)] and cereblon knockdown (shCRBN) H929 cells treated with DMSO and 1 μM POM for 3 days. GAPDH, loading control. Arrow head, UHRF1. (2B) qRT-PCR analysis of UHRF1 gene expression levels in cells as in (2A). Data was normalized to ACTB. Error bars represent the SEM of technical duplicates. *** P<0.001 (Two-tailed unpaired Student's t-test). (2C) Western blot analysis protein expression of UHRF1, Ikaros and Aiolos in stably transduced H929 cells after Dox induction (0, 10, 50 or 100 ng/ml) for 3 days of non-target shRNA (shNT) or shRNAs targeting Ikaros (shIKZF1) or Aiolos (shIKZF3). (2D) qRT-PCR analysis of UHRF1 gene expression levels in cells as in (2C). Shown are cells induced with Dox (50 ng/ml) for 3 days. Data was normalized to GAPDH. Error bars represent the SEM of technical duplicates. *P<0.05, ** P<0.01, *** P<0.001, **** P<0.0001 (Two-tailed unpaired Student's t-test). (2E) ChIP-qPCR analysis of the occupancy Aiolos (upper panel) or H3K27ac (lower panel) occupancy at transcription star site (TSS), gene body (+7 kb) and gene end (GE) of UHRF1 gene in H929, MM1.S or RPMI 8226 cells treated with DMSO or 1 μM POM for 24 hr. ChIP with control rabbit IgG (IgG) serves as a negative control. Error bars represent the SEM of technical triplicates. * P<0.05, ** P<0.01, **** P<0.0001 (Two-tailed unpaired Student's t-test).
FIG. 6A-6D. […] (6A) Immunocytochemistry assay of UHRF1 in H929 cells treated with DMSO or 1 μM POM for 48 hrs. (6B) qRT-PCR analysis of UHRF1 gene expression levels in indicated MM cells treated with indicated doses of POM for 3 days. Data was normalized to ACTB. Error bars represent the SEM from duplicate measurements. * P<0.05, ** P<0.01, *** P<0.001, **** P<0.0001 (Two-tailed Student's t-test). […]
Total RNA was extracted by RNeasy Mini Kit (Qiagen) and reverse transcribed by iScrip cDNA Synthesis Kit (Bio-rad). Quantitative real-time PCR (qPCR) was conducted on a VillA 7 System using the Power SYBR Green PCR Master Mix (Applied Biosystems). Gene expression values were calculated by normalization to Actb using the comparative CT method.

## Nc1cccc2c1C(=O)N(C1CCC(=O)NC1=O)C2=O (stereo not shown) [POM, pomalidomide]
H929, MM1.S and U266 cells, indicated doses of POM, 3 days
  UHRF1 mRNA: dose dependent downregulation
H929 cells, POM 1 μM, time course
  time to profound reduction of UHRF1 mRNA level: up to 24 hours
Drug sensitive MM (FIG. 6 title)
  UHRF1 gene expression: downregulated
shCRBN vs shLuc H929 cells, 1 μM POM, 3 days
  downregulation of UHRF1 mRNA by POM under cereblon knockdown: rescue
